Measured values published in ChEMBL document CHEMBL3885861, “Open TG-GATES”.

Organism: Rattus norvegicus
Test: Open TG-GATES - Regimen: Daily Repeat
Format: toxicity, organism-based, Sprague-Dawley
Set-up: regimen Daily Repeat, gender Male, age 6 weeks
Details: in vivo, po, 300 mg/kg, route gavage, dose level Middle; for APTT / Bas / Eos / Fbg / Hb / Ht / Lym / MCH / MCHC / MCV / Mono / Neu / PT / Plat / RBC / Ret / WBC: tissue Blood; for KIDNEY_L / KIDNEY_R / KIDNEY_TOTAL: tissue Kidney; for LIVER: tissue Liver; for A/G / ALP / ALT / AST / BUN / CRE / Ca / Cl / DBIL / GLC / IP / K / LDH / Na / PL / RALB / TBIL / TC / TG / TP / gamma-GTP: tissue Plasma

CC(S)C(=O)NCC(=O)O (configuration not stated) [TIOPRONIN] was tested, and the TERMINAL_BW (72 h, time 3 day) was 224.5 g, the APTT (72 h, time 3 day) was 22.4 s and the Bas (72 h, time 3 day) was 0%. For the same compound, the Eos (72 h, time 3 day) was 0.8%, the Fbg (72 h, time 3 day) was 299 mg/dL and the Hb (72 h, time 3 day) was 13.5 g/dL. For the same compound, the Ht (72 h, time 3 day) was 40%, the Lym (72 h, time 3 day) was 78.4% and the MCH (72 h, time 3 day) was 21.1 pg. It also gave an MCHC (72 h, time 3 day) of 33.6%, an MCV (72 h, time 3 day) of 62.7 fL and a Mono (72 h, time 3 day) of 2.4%. The Neu (72 h, time 3 day) was 17.2%, the PT (72 h, time 3 day) was 15.2 s and the Plat (72 h, time 3 day) was 132 x10_4/uL. It also gave an RBC (72 h, time 3 day) of 639.8 x10_4/ul, a Ret (72 h, time 3 day) of 7.5% and a WBC (72 h, time 3 day) of 96 x10_2/uL. For the same compound, the KIDNEY_L (72 h, time 3 day) was 1 g, the KIDNEY_R (72 h, time 3 day) was 1 g and the KIDNEY_TOTAL (72 h, time 3 day) was 2 g. The LIVER (72 h, time 3 day) was 10.7 g, the A/G (72 h, time 3 day) was 1.2 and the ALP (72 h, time 3 day) was 1564.4 IU/L. The ALT (72 h, time 3 day) was 42 IU/L, the AST (72 h, time 3 day) was 75.2 IU/L and the BUN (72 h, time 3 day) was 16 mg/dL. For the same compound, the CRE (72 h, time 3 day) was 0.2 mg/dL, the Ca (72 h, time 3 day) was 10.6 mg/dL and the Cl (72 h, time 3 day) was 105.8 meq/L. It also gave a DBIL (72 h, time 3 day) of 0 mg/dL, a GLC (72 h, time 3 day) of 187.4 mg/dL and an IP (72 h, time 3 day) of 7.3 mg/dL. The K (72 h, time 3 day) was 4.4 meq/L, the LDH (72 h, time 3 day) was 205.6 IU/L and the Na (72 h, time 3 day) was 140.4 meq/L. For the same compound, the PL (72 h, time 3 day) was 131.4 mg/dL, the RALB (72 h, time 3 day) was 3 g/dL and the TBIL (72 h, time 3 day) was 0.008 mg/dL. It also gave a TC (72 h, time 3 day) of 73.4 mg/dL, a TG (72 h, time 3 day) of 71.2 mg/dL and a TP (72 h, time 3 day) of 5.5 g/dL. The gamma-GTP (72 h, time 3 day) was 1.4 IU/L, the TERMINAL_BW ([…], time 7 day) was 258 g and the TERMINAL_BW ([…], time 14 day) was 313.9 g. It also gave a TERMINAL_BW ([…], time 28 day) of 381.6 g, an APTT ([…], time 7 day) of 22.2 s and a Bas ([…], time 7 day) of 0%. It also gave an Eos ([…], time 7 day) of 1.2%, a Fbg ([…], time 7 day) of 330.4 mg/dL and a Hb ([…], time 7 day) of 14 g/dL. It also gave a Ht ([…], time 7 day) of 40.4%, a Lym ([…], time 7 day) of 77.6% and an MCH ([…], time 7 day) of 21.7 pg. For the same compound, the MCHC ([…], time 7 day) was 34.9%, the MCV ([…], time 7 day) was 62.1 fL and the Mono ([…], time 7 day) was 2.4%. It also gave a Neu ([…], time 7 day) of 18%, a PT ([…], time 7 day) of 15.3 s and a Plat ([…], time 7 day) of 121.4 x10_4/uL. For the same compound, the RBC ([…], time 7 day) was 649.6 x10_4/ul, the Ret ([…], time 7 day) was 6.4% and the WBC ([…], time 7 day) was 101.8 x10_2/uL. For the same compound, the APTT ([…], time 14 day) was 23.7 s, the Bas ([…], time 14 day) was 0% and the Eos ([…], time 14 day) was 1%. For the same compound, the Fbg ([…], time 14 day) was 287.6 mg/dL, the Hb ([…], time 14 day) was 14 g/dL and the Ht ([…], time 14 day) was 41.2%. For the same compound, the Lym ([…], time 14 day) was 83%, the MCH ([…], time 14 day) was 20.3 pg and the MCHC ([…], time 14 day) was 33.9%. The MCV ([…], time 14 day) was 59.7 fL, the Mono ([…], time 14 day) was 2.2% and the Neu ([…], time 14 day) was 13.2%. The PT ([…], time 14 day) was 15.5 s, the Plat ([…], time 14 day) was 109.8 x10_4/uL and the RBC ([…], time 14 day) was 689.8 x10_4/ul. For the same compound, the Ret ([…], time 14 day) was 5%, the WBC ([…], time 14 day) was 142 x10_2/uL and the APTT ([…], time 28 day) was 24.6 s. For the same compound, the Bas ([…], time 28 day) was 0%, the Eos ([…], time 28 day) was 1% and the Fbg ([…], time 28 day) was 323.4 mg/dL. For the same compound, the Hb ([…], time 28 day) was 15.4 g/dL, the Ht ([…], time 28 day) was 43.3% and the Lym ([…], time 28 day) was 82.6%. For the same compound, the MCH ([…], time 28 day) was 20.1 pg, the MCHC ([…], time 28 day) was 35.5% and the MCV ([…], time 28 day) was 56.6 fL. It also gave a Mono ([…], time 28 day) of 2%, a Neu ([…], time 28 day) of 12.6% and a PT ([…], time 28 day) of 16.1 s. The Plat ([…], time 28 day) was 95.9 x10_4/uL, the RBC ([…], time 28 day) was 764.2 x10_4/ul and the Ret ([…], time 28 day) was 2.6%. It also gave a WBC ([…], time 28 day) of 146.8 x10_2/uL, a KIDNEY_L ([…], time 7 day) of 1.1 g and a KIDNEY_R ([…], time 7 day) of 1.1 g. For the same compound, the KIDNEY_TOTAL ([…], time 7 day) was 2.2 g, the KIDNEY_L ([…], time 14 day) was 1.2 g and the KIDNEY_R ([…], time 14 day) was 1.2 g. For the same compound, the KIDNEY_TOTAL ([…], time 14 day) was 2.5 g, the KIDNEY_L ([…], time 28 day) was 1.4 g and the KIDNEY_R ([…], time 28 day) was 1.4 g. The KIDNEY_TOTAL ([…], time 28 day) was 2.9 g, the LIVER ([…], time 7 day) was 12 g and the LIVER ([…], time 14 day) was 13.9 g. The LIVER ([…], time 28 day) was 16.5 g, the A/G ([…], time 7 day) was 1.1 and the ALP ([…], time 7 day) was 1316.6 IU/L. The ALT ([…], time 7 day) was 36 IU/L, the AST ([…], time 7 day) was 63.4 IU/L and the BUN ([…], time 7 day) was 15.8 mg/dL. The CRE ([…], time 7 day) was 0.1 mg/dL, the Ca ([…], time 7 day) was 10.6 mg/dL and the Cl ([…], time 7 day) was 106.6 meq/L. It also gave a DBIL ([…], time 7 day) of 0 mg/dL, a GLC ([…], time 7 day) of 186.4 mg/dL and an IP ([…], time 7 day) of 7.3 mg/dL. The K ([…], time 7 day) was 4.3 meq/L, the LDH ([…], time 7 day) was 150.2 IU/L and the Na ([…], time 7 day) was 140.6 meq/L. The PL ([…], time 7 day) was 144.6 mg/dL, the RALB ([…], time 7 day) was 2.9 g/dL and the TBIL ([…], time 7 day) was 0 mg/dL. The TC ([…], time 7 day) was 70.6 mg/dL, the TG ([…], time 7 day) was 146.2 mg/dL and the TP ([…], time 7 day) was 5.5 g/dL. For the same compound, the gamma-GTP ([…], time 7 day) was 1.8 IU/L, the A/G ([…], time 14 day) was 1.3 and the ALP ([…], time 14 day) was 1441.2 IU/L. It also gave an ALT ([…], time 14 day) of 43.8 IU/L, an AST ([…], time 14 day) of 65.8 IU/L and a BUN ([…], time 14 day) of 20.4 mg/dL. The CRE ([…], time 14 day) was 0.2 mg/dL, the Ca ([…], time 14 day) was 10.6 mg/dL and the Cl ([…], time 14 day) was 106.8 meq/L. For the same compound, the DBIL ([…], time 14 day) was 0 mg/dL, the GLC ([…], time 14 day) was 194.6 mg/dL and the IP ([…], time 14 day) was 6.5 mg/dL. The K ([…], time 14 day) was 4.4 meq/L, the LDH ([…], time 14 day) was 143.4 IU/L and the Na ([…], time 14 day) was 140.8 meq/L. For the same compound, the PL ([…], time 14 day) was 151.8 mg/dL, the RALB ([…], time 14 day) was 3.1 g/dL and the TBIL ([…], time 14 day) was 0.004 mg/dL. For the same compound, the TC ([…], time 14 day) was 70.8 mg/dL, the TG ([…], time 14 day) was 155 mg/dL and the TP ([…], time 14 day) was 5.6 g/dL. For the same compound, the gamma-GTP ([…], time 14 day) was 2.2 IU/L, the A/G ([…], time 28 day) was 1.2 and the ALP ([…], time 28 day) was 1229.6 IU/L. The ALT ([…], time 28 day) was 42.6 IU/L, the AST ([…], time 28 day) was 64.6 IU/L and the BUN ([…], time 28 day) was 18.6 mg/dL. It also gave a CRE ([…], time 28 day) of 0.2 mg/dL, a Ca ([…], time 28 day) of 10.9 mg/dL and a Cl ([…], time 28 day) of 106 meq/L. It also gave a DBIL ([…], time 28 day) of 0 mg/dL, a GLC ([…], time 28 day) of 192.4 mg/dL and an IP ([…], time 28 day) of 6.5 mg/dL. The K ([…], time 28 day) was 4.1 meq/L, the LDH ([…], time 28 day) was 154.2 IU/L and the Na ([…], time 28 day) was 143 meq/L. The PL ([…], time 28 day) was 142 mg/dL, the RALB ([…], time 28 day) was 3.3 g/dL and the TBIL ([…], time 28 day) was 0.016 mg/dL. For the same compound, the TC ([…], time 28 day) was 72 mg/dL, the TG ([…], time 28 day) was 127.6 mg/dL and the TP ([…], time 28 day) was 6.1 g/dL. It also gave a gamma-GTP ([…], time 28 day) of 1.8 IU/L.
